Paper PMC9501810, “Bitter Peptides YFYPEL, [sequence], and [sequence], Released during Gastric Digestion of Casein, Stimulate Mechanisms of Gastric Acid Secretion via Bitter Taste Receptors TAS2R16 and TAS2R38” (Journal of Agricultural and Food Chemistry, 2022)
“And” between values parts separate entries of the source, which are not always exact repeats. Equal values may be shown once.

What was measured:
Format in all cases: cell-based, human
[1] = tested on: HGT-1 cells; test: Proton secretion assay (intracellular proton index IPX, SNARF-1-AM); conditions: for ΔIPX (change in intracellular proton index vs untreated cells): 10 min incubation in KRHB, n = 4–8; for ΔIPX (change in intracellular proton index vs untreated cells) / ΔIPX on co-incubation with probenecid: mean ± SEM; for proton secretion with peptide alone compared to untreated control cells: VAPFPEVF 17.5 µM, YFYPEL 0.03 µM, YQEPVLGPVRGPFPIIV 0.4 µM, p < 0.01; for proton secretion with peptide alone compared to untreated control cells / ΔIPX on co-incubation with probenecid: 10 min; for concentration with the lowest IPX value (minimum of curve fit; highest impact on secretory activity): curve fit over 0.01–200 µM proton secretion profile; for ΔIPX on co-incubation with probenecid: peptide (VAPFPEVF 17.5 µM, YFYPEL 0.03 µM, YQEPVLGPVRGPFPIIV 0.4 µM) + 1 mM probenecid, vs untreated cells
Description: The measurement of proton secretion from HGT-1 cells represents a well-established model for the identification of bitter compounds. By affecting extraoral bitter taste receptors with bitter compounds, a modulatory effect on proton secretion can be measured. For this purpose, cells were washed with KRHB and incubated with 3 μM of the intracellular pH indicator 1,5 carboxy-seminaphto-rhodafluor acetoxymethyl ester (SNARF-1-AM) under standard conditions. After 30 min, the cells were washed again with KRHB and then incubated with casein (0.01–10 μM equimolar related to the relevant forms αS1- and β-casein), hydrolysate (0.01–10 μM), or the peptides (0.01–200 μM). […] All substances were dissolved and diluted in KRHB. 1 mM histamine was used as a positive control. Measurements were performed using FlexStation 3 (Molecular Devices, USA). The excitation wavelength was 488 nm, and the emission wavelengths were 580 and 640 nm. For calibration (pH range 7.0–8.0), the intracellular and extracellular pH was adjusted with 2 μM nigericin in potassium buffer (20 mM NaCl, 110 mM KCl, 1 mM CaCl2, 1 mM MgSO4, 18 mM D-glucose, and 20 mM HEPES). The intracellular proton index (IPX) was calculated as the log2 value of the 580/640 ratio and compared with cells without treatment. Negative values represent increased secretion of protons and therefore stimulation of mechanisms regulating gastric acid secretion in HGT-1 cells. In contrast, positive values represent an inhibition of secretion compared to the untreated control.

[2] = tested on: TAS2R40; test: RT-qPCR gene expression of TAS2R40 in HGT-1 cells; conditions: VAPFPEVF 17.5 µM, YFYPEL 0.03 µM, YQEPVLGPVRGPFPIIV 0.4 µM, normalized to PPIA and GAPDH and untreated cells, mean, n = 3–5
Description: (§1) For mRNA expression analysis, 800,000 cells were seeded in a T25 cell culture flask (25 cm^2) 1 day before the experiment. After incubation with 17.5 μM […], 0.03 μM YFYPEL, or 0.4 μM […] for 15, 30, 60, and 120 min, RNA was isolated using the peqGOLD RNA Kit (VWR Peqlab, USA) following the manufacturer’s protocol. Determination of RNA concentration (A260/A280 between 2.03 and 2.09) was performed on a NanoDrop One^c (Thermo Fisher Scientific Inc., USA). RNA integrity number (RIN 9.9–10.0, version 2.6, assay class Eukaryote Total RNA Nano) was analyzed using a 2100 Bioanalyzer (Agilent Technologies, USA). Removal of gDNA and synthesis of cDNA were performed using the iScript gDNA Clear cDNA Synthesis Kit (BioRad, Feldkirchen, Germany) following the manufacturer’s protocol. Real-time-qPCR (RT-qPCR) was performed with 50 ng cDNA amplified with SsoAdvanced Universal SYBR Green Supermix (Bio-Rad Laboratories, Inc., USA). The sequences of the forward and reverse primers of the 25 TAS2Rs were taken from Liszt et al.([13]) (Supporting Information Table-SI 3). Verified primers for the TAS1Rs (TAS1R1: qHsaCID0013443; TAS1R2: qHsaCID0016106; TAS1R3: qHsaCED0002321) and for MAPK1 (qHsaCEP0050000) were obtained from Bio-Rad Laboratories. PPIA[37] and GAPDH[38] were used as reference genes. The effects of the peptides on gene expression were analyzed in comparison to untreated control cells.

[3] = tested on: TAS2R45; test: RT-qPCR gene expression of TAS2R45 in HGT-1 cells; conditions: VAPFPEVF 17.5 µM, YFYPEL 0.03 µM, YQEPVLGPVRGPFPIIV 0.4 µM, normalized to PPIA and GAPDH and untreated cells, mean, n = 3–5
Description: as §1

[4] = tested on: TAS2R30; test: RT-qPCR gene expression of TAS2R30 in HGT-1 cells; conditions: VAPFPEVF 17.5 µM, YFYPEL 0.03 µM, YQEPVLGPVRGPFPIIV 0.4 µM, normalized to PPIA and GAPDH and untreated cells, mean, n = 3–5
Description: as §1

[5] = tested on: TAS2R7; test: RT-qPCR gene expression of TAS2R7 in HGT-1 cells; conditions: VAPFPEVF 17.5 µM, YFYPEL 0.03 µM, YQEPVLGPVRGPFPIIV 0.4 µM, normalized to PPIA and GAPDH and untreated cells, mean, n = 3–5
Description: as §1

[6] = 0.1 µM, IPX = log2 of 580/640 ratio, negative = stimulated proton secretion

Row | Substance | ΔIPX (change in intracellular proton index vs untreated cells) [1, 6] | proton secretion with peptide alone compared to untreated control cells [1] | concentration with the lowest IPX value (minimum of curve fit; highest impact on secretory activity) [1] | ΔIPX on co-incubation with probenecid [1] | change in gene expression of TAS2R40 ([2]; incubation 15 min) | change in gene expression of TAS2R40 ([2]; incubation 30 min) | change in gene expression of TAS2R40 ([2]; incubation 60 min) | change in gene expression of TAS2R40 ([2]; incubation 120 min) | change in gene expression of TAS2R45 ([3]; incubation 15 min) | change in gene expression of TAS2R45 ([3]; incubation 30 min) | change in gene expression of TAS2R45 ([3]; incubation 60 min) | change in gene expression of TAS2R45 ([3]; incubation 120 min) | change in gene expression of TAS2R30 ([4]; incubation 15 min) | change in gene expression of TAS2R30 ([4]; incubation 30 min) | change in gene expression of TAS2R30 ([4]; incubation 60 min) | change in gene expression of TAS2R30 ([4]; incubation 120 min) | change in gene expression of TAS2R7 ([5]; incubation 15 min) | change in gene expression of TAS2R7 ([5]; incubation 30 min) | change in gene expression of TAS2R7 ([5]; incubation 60 min) | change in gene expression of TAS2R7 ([5]; incubation 120 min) | other results
1 | YFYPEL [bitter casein peptide αS1-CN144–149] | −0.253 ± 0.027 | increased proton secretion | 0.03 µM | −0.001 ± 0.019 | 1.90 fold change | 0.82 fold change | 0.59 fold change | 0.75 fold change | 1.15 fold change | 0.54 fold change | 0.70 fold change | 0.94 fold change | 1.79 fold change | 0.62 fold change | 0.89 fold change | 1.15 fold change | 1.23 fold change | 2.50 fold change | 6.71 fold change and 6.71 ± 1.56 fold change | 1.18 fold change | –
2 | YQEPVLGPVRGPFPIIV [bitter casein peptide βA1/A2-CN193–209] | −0.203 ± 0.048 | increased proton secretion | 0.4 µM | −0.020 ± 0.036 | 0.92 fold change | 1.78 fold change | 0.96 fold change | 0.86 fold change | 0.63 fold change | 1.25 fold change | 1.06 fold change | 0.84 fold change | 0.74 fold change | 1.88 fold change | 1.20 fold change | 0.89 fold change | 0.49 fold change | 0.74 fold change | 0.70 fold change | 1.82 fold change | –
3 | VAPFPEVF [bitter casein peptide αS1-CN25–32] | – | increased proton secretion | 17.5 µM | +0.043 ± 0.031 | 0.81 fold change | 1.54 fold change | 0.88 fold change | 1.42 fold change | 0.52 fold change | 1.08 fold change | 0.68 fold change | 1.17 fold change | 0.56 fold change | 1.53 fold change | 0.75 fold change | 1.62 fold change | 1.20 fold change | 0.71 fold change | 1.05 fold change | 0.62 fold change | ΔIPX (change in intracellular proton index vs untreated cells) ([1]; 10 µM, negative = stimulated, positive = inhibited proton secretion): −0.286 ± 0.037
